In test [1] the target is T1, human P2X3 receptors (hP2X3Rs) (Homo sapiens, UniProt P56373).
T1 construct: transfected with rat or human full-length P2X3 cDNA subcloned into pIRES2-EGFP; expressed in transfected cells; host or cells: HEK293T (HEK293 in the results)
T1 sequence (P56373 1-397): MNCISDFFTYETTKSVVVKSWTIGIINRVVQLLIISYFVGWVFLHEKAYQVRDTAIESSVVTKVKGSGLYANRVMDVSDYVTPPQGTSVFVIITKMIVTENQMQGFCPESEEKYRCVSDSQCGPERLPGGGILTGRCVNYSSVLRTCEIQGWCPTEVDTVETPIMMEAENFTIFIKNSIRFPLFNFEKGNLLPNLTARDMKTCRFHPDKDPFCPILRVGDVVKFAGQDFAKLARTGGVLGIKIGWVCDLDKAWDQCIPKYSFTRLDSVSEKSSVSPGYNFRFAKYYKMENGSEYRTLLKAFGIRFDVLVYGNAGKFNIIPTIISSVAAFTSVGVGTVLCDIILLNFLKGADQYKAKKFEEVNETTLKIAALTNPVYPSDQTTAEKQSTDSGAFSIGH
The test can be described thus: Whole-cell patch clamp on HEK293 cells expressing recombinant human P2X3Rs. It counts as cell-based. The method, then:
(§1) Rat trigeminal, nodose, or dorsal root ganglion (TG, NG, and DRG, respectivley) neurons in culture were prepared as described previously.[46],[47] Neurons were plated on poly-L-lysine (0.2 mg/ml)-coated Petri dishes and cultured for one to two days under an atmosphere containing 5% CO2. Cells were used within two days of plating when they lacked processes. HEK293T cells were prepared as reported previously[32],[48] and transfected with rat or human full-length P2X3 cDNA subcloned into pIRES2-EGFP (Clontech, Mountain View, CA, USA).
(§2) TG, NG, DRG, or HEK cells were recorded in the whole-cell configuration while being continuously superfused (at 2 ml/min) with control solution containing (in mM): 152 NaCl, 5 KCl, 1 MgCl2, 2 CaCl2, 10 glucose, and 10 HEPES; pH was adjusted to 7.4 with NaOH and osmolarity was adjusted to 320 mOsM with glucose. […] Responses to selective P2X3R agonist α,β-methylene-ATP (α,β-meATP; resistant to ectoATPase hydrolysis, Sigma-Aldrich) were measured using an EPC-9 amplifier operated by HEKA Patch Master software (HEKA Electronik, Germany). Cells were voltage-clamped at −70 mV. In most cells, series resistance was compensated by 80%. To determine EC50 values, dose-response curves were constructed for α,β-meATP by administering different agonist doses same cells and fitting data to a logistic equation (Origin 8.0, Microcal, Northampton, MA).
Agonists and antagonists were applied (usually for 2 s) via a rapid superfusion system (Rapid Solution Changer RSC-200; BioLogic Science Instruments, Grenoble, France) placed 100 to 150 µm near the cell. The time for the solution exchange across the cell was approximately 30 ms, as judged with liquid junction potential measurements. All chemicals, including enzymes for cell culture, were from Sigma-Aldrich (St. Louis, MO). […]
The peak amplitudes of the responses were measured using HEKA Patch Master software. […] All data are presented as mean ± SEM (n = the number of cells) with statistical significance assessed by paired t-test (for parametric data) or Mann-Whitney rank-sum test (for nonparametric data). […]
(The patch-clamp technique gives a direct electrical read-out from membranes.)

Test [2] addresses T2, native P2X3Rs in DRG neurons (Rattus norvegicus, UniProt P49654).
T2 construct: effects of AppNHppA on native P2X3Rs in TG, DRG, and NG neurons were investigated; endogenous in cells; host or cells: cultured rat trigeminal ganglion (TG) or dorsal root ganglion (DRG) neurons
T2 sequence (P49654 1-397): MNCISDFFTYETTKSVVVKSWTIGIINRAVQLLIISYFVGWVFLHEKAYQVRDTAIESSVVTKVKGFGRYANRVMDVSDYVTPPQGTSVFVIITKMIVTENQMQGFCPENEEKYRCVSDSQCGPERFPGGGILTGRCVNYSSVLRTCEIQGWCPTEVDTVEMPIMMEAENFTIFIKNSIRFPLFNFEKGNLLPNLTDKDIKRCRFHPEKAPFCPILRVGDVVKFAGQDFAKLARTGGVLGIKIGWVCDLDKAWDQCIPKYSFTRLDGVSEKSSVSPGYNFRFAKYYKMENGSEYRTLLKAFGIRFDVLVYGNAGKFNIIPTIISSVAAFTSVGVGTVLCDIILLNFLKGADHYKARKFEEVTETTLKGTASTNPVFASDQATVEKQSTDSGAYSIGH
In words: Whole-cell recording of α,β-meATP currents in cultured dorsal root ganglion (DRG) neurons. It is filed as cell-based. The note with it: DRG neuron, read-out: inhibition of peak currents in DRG neurons. The method, then:
as §1
as §2, with “MA). […]” for “MA).”

Each structure is given as a SMILES string.

As usually defined, the inhibition is how much of the control response was suppressed. On to `Nc1ncnc2c1ncn2[C@@H]1O[C@H](COP(=O)(O)OP(=O)(O)NP(=O)(O)OP(=O)(O)OC[C@H]2O[C@@H](n3cnc4c(N)ncnc43)[C@H](O)[C@@H]2O)[C@@H](O)[C@H]1O` [AppNHppA, diadenosine 5′,5′′′-P^1,P^4-(β,γ-imido)tetraphosphate], for which, in test [1] (HEK293, read-out: α,β-meATP test currents, % of control), the remaining activity at 1 µM is 12 ± 4%. The remaining activity at 0.1 µM in test [1] (HEK293, read-out: α,β-meATP test responses, % of control) stood at 48 ± 8%. For the same compound, the activity at 0.01 µM in test [1] (HEK293, read-out: α,β-meATP-activated currents, % of control values) turned out to be 80 ± 5%. In addition, the inhibition at 1 µM in test [2] stood at 79.2 ± 5.6%.

The values are drawn from publication PMC4955970, “Stable, synthetic analogs of diadenosine tetraphosphate inhibit rat and human P2X3 receptors and inflammatory pain” (Molecular Pain, 2016).
